# Read-outs that look alike come from different tables or passages of the source.
# Assays:
# [1] = system: IGROV-1 cells; assay: Cell cycle analysis, IMGN853 and carboplatin (FIG. 9B); assay type: cell-based; conditions: carboplatin 20 μM, IMGN853 8 nM, alone or combined, 6 hours, then 24 hour drug-free medium
# Description: Cells were washed, and cell cycle distribution determined following 24 hour culture in drug-free medium.
# [2] = system: platinum-sensitive ovarian cancer patient derived xenografts (PDXs); assay: IMGN853 and carboplatin, single administration, in platinum-sensitive ovarian cancer PDX (FIG. 9D); assay type: in vivo, SCID mice; conditions: single administration: IMGN853 2.5 mg/kg and/or carboplatin 80 mg/kg; day 39
# Description: Data are expressed as mean and standard error of the mean (SEM) for each time point.
# To examine whether these in vitro cellular effects translated to improved efficacy in vivo, mice bearing patient-derived xenografts (PDX) obtained from an individual with EOC were treated with IMGN853 and carboplatin, both as single agents and in combination (FIG. 9D). […] Animals received a single administration of IMGN853 (2.5 mg/kg) or carboplatin (80 mg/kg), and each regimen inhibited tumor growth as monotherapy (T/C values of 43% and 20% on day 39, respectively).
# [3] = system: OV90 serous ovarian tumor xenografts; assay: Antitumor activity of IMGN853, cediranib and combination in OV90 tumor model (Example 9); assay type: in vivo, SCID mice; conditions: IMGN853 2.5 mg/kg 1× and/or cediranib 1.5 mg/kg qd×5
# Description: The term “respond favorably” generally refers to causing a beneficial state in a subject. With respect to cancer treatment, the term refers to providing a therapeutic effect on the subject. Positive therapeutic effects in cancer can be measured in a number of ways (See, W. A. Weber, J. Nucl. Med. 50:1S-10S (2009)). For example, tumor growth inhibition, molecular marker expression, serum marker expression, and molecular imaging techniques can all be used to assess therapeutic efficacy of an anti-cancer therapeutic. Log10 Cell Kill (LCK) can be used to quantify the tumor cell kill. Log10 cell kill (LCK) is calculated with the formula LCK=(T−C)/Td×3.32, where (T−C) (or tumor growth delay (TGD)) is the median time (in days) for the treatment group and control group tumors to reach a predetermined size (tumor-free survivors excluded). Td is the tumor doubling time (estimated from nonlinear exponential curve fit of daily median of control tumor growth), and 3.32 is the number of cell doublings per log of cell growth. The ability to reduce tumor volume may be assessed, for example, by measuring a % T/C value, which is the median tumor volume of treated subjects divided by the median tumor volume of the control subjects. With respect to tumor growth inhibition, according to NCI standards, a T/C≤42% is the minimum level of anti-tumor activity. A T/C<10% is considered a high anti-tumor activity level, with T/C (%)=Median tumor volume of the treated/Median tumor volume of the control×100. A favorable response can be assessed, for example, by increased progression-free survival (PFS), disease-free survival (DFS), or overall survival (OS), complete response (CR), partial response (PR), or, in some cases, stable disease (SD), a decrease in progressive disease (PD), a […] time to progression (TTP), a decrease in CA125 in the case of ovarian cancer, or any combination thereof.
# [4] = system: ST088 human epithelial ovarian cancer (EOC) patient-derived tumor xenografts; assay: Antitumor activity of IMGN853, bevacizumab, paclitaxel and combinations in ST088 tumor model (Example 6); assay type: in vivo, SCID mice; conditions: QWx2: IMGN853 5 mg/kg, bevacizumab 5 mg/kg, paclitaxel 10 mg/kg; for T/C: alone or combined; for CR / PR: responders/animals
# Description: Tumor volumes were measured twice weekly in three dimensions using a caliper.
# [5] = system: OV90 serous ovarian tumor xenografts; assay: Antitumor activity of IMGN853 (1.25 mg/kg), paclitaxel, bevacizumab and combinations in OV90 tumor model (Example 4); assay type: in vivo, SCID mice; conditions: single doses: IMGN853 1.25 mg/kg, paclitaxel 10 mg/kg, bevacizumab 5 mg/kg; for T/C: alone or combined; for CR: responders/animals
# Description: Mice were randomized into groups (n=8 per group) by tumor volume and subsequently dosed on Day 14 post-inoculation. All treatments consisted of single doses (1×).
# Tumor volumes were measured one to two times weekly in three dimensions using a caliper. […] Body weights were measured twice per week as an index of toxicity.
# [6] = system: OV90 serous ovarian tumor xenografts; conditions: IMGN853 5 mg/kg 1× and/or bevacizumab 5 mg/kg 1×
# Description: Mice were randomized into groups (n=6 per group) by tumor volume and subsequently dosed on Day 14 post-inoculation.
# Tumor volumes were measured one to two times weekly in three dimensions using a caliper. The tumor volume was expressed in mm^3 using the formula V=Length×Width×Height×½ (Tomayko and Reynolds, Cancer Chemother. Pharmacol. 24:148-54 (1989)) Body weights were measured twice per week as an index of toxicity. Activity was assessed as described in Bissery et al. (1991).
# [7] = system: IGROV-1 ovarian tumor xenografts; assay: Antitumor activity of IMGN853, bevacizumab and combination in IGROV-1 tumor model (Example 5); assay type: in vivo, SCID mice; conditions: IMGN853 5 mg/kg 1× and/or bevacizumab 5 mg/kg 1×
# Description: (§1) All treatments consisted of single doses (1×).
# FIG. 4 depicts the results.
# [8] = system: platinum-resistant ovarian cancer PDXs; assay: IMGN853 with bevacizumab in platinum-resistant ovarian cancer PDX, 102-day study (FIG. 11B); assay type: in vivo, mice
# Description: Tumor growth was monitored out to 102 days. * P=0.011; ** P=0.018; ns, not significant (Wilcoxon test, non-adjusted).
# [9] = system: OV90 serous ovarian tumor xenografts; assay: Antitumor activity of IMGN853 (2.5 mg/kg), bevacizumab and combination in OV90 tumor model (Example 3); assay type: in vivo, SCID mice; conditions: IMGN853 2.5 mg/kg 1× and/or bevacizumab 5 mg/kg 1×
# Description: FIG. 2B depicts the results.
# [10] = system: OV-90 xenografts; assay: Fractionated bevacizumab dosing with IMGN853 in OV-90 xenografts (FIG. 11A); assay type: in vivo, mice; conditions: IMGN853 3 mg/kg; bevacizumab single 5 mg/kg dose or two 2.5 mg/kg doses (QWx2); monotherapy or combination
# [11] = system: OV-90 xenografts; assay: OV-90 tumors harvested 4 days post-dosing: histology, γH2AX, CD31, anti-maytansine (FIGS. 12A-12C); assay type: in vivo, mice; conditions: IMGN853 2.5 mg/kg and/or bevacizumab 5 mg/kg; day 4
# Description: Original magnification, 4×; scale bars, 2 mm (for Combination panel, 600 μm).
# For each group, representative micrographs from one of three tumors are shown. Original magnification, 20×; scale bars, 200 μm.
# Next, as a pharmacodynamic readout, tumor γH2AX levels were measured by immunoblotting (FIG. 12B).
# While genotoxic insults are the primary inducers of γH2AX, accumulation of this protein can also occur in response to hypoxia. […] In order to examine treatment-related effects on microvessels, immunohistochemical staining with the endothelial cell marker CD31 was performed (FIG. 12C, upper panel).
# [12] = system: H2110 non-small cell lung cancer (NSCLC) tumor xenografts
# Description: Mice were randomized into groups (n=6-10 per group) by tumor volume and subsequently dosed on Day 7 post-inoculation. All treatments consisted of single doses (1×).
# Tumor volumes were measured one to two times weekly in three dimensions using a caliper. The tumor volume was expressed in mm^3 using the formula V=Length×Width×Height×½ (Tomayko 1989). Body weights were measured twice per week as an index of test agent toxicity. Activity was assessed as described in Bissery et al. (1991).
# [13] = system: OV90 ovarian tumor xenografts; assay: Antitumor activity of carboplatin doublets and triple-combinations in OV90 tumor model (Example 8); assay type: in vivo, SCID mice; conditions: single doses: IMGN853 5 mg/kg, carboplatin 100 mg/kg, bevacizumab 5 mg/kg, paclitaxel 10 mg/kg
# Description: as §1
# FIG. 7 depicts the results.
# [14] = system: platinum-sensitive PDX tumors; assay: Carboplatin doublets QWx2 in platinum-sensitive PDX (FIG. 9E); assay type: in vivo, mice; conditions: PLD 4 mg/kg or IMGN853 5 mg/kg
# Description: The combinatorial benefit conferred by IMGN853/carboplatin treatment was compared with clinically relevant chemotherapeutic combinations in the same PDX model. Tumor-bearing animals received two consecutive weekly doses (QWx2) of carboplatin (80 mg/kg, i.p.) in combination with i.v. paclitaxel (10 mg/kg), PLD (4 mg/kg), or IMGN853 (5 mg/kg). As expected, treatment with the carboplatin-paclitaxel doublet was efficacious in this model of platinum sensitivity (FIG. 9E). […] The higher incidence of CRs was strongly indicative of a better durability of response for the combination, and overall the data further supports the combination of IMGN853 with carboplatin for improving response to platinum therapy in EOC.
# [15] = IMGN853 3 mg/kg 1× and/or bevacizumab 5 mg/kg 1×
# [16] = IMGN853 3 mg/kg 1× and/or bevacizumab 5 mg/kg 1×, responders/animals
molecule,measurement,setting,value
"N.N.O=C([O-])C1(C(=O)[O-])CCC1.[Pt+2] [carboplatin, reference compound]",cell cycle distribution,[1],accumulation of IGROV-1 cells in both the S and G2/M phases
same,T/C,[2],20%
"COc1cc2c(Oc3ccc4[nH]c(C)cc4c3F)ncnc2cc1OCCCN1CCCC1 [cediranib, reference compound]",T/C,[3],80%
same,antitumor activity rating,[3],inactive
same,LCK,[3]; Log10 cell kill,0.1
same,PR,[3]; responders/animals,0/6
same,T−C,[3]; tumor growth delay,4 days
CC(=O)O[C@H]1C(=O)[C@@]2(C)[C@H]([C@H](OC(=O)c3ccccc3)[C@]3(O)C[C@H](OC(=O)[C@H](O)[C@@H](NC(=O)c4ccccc4)c4ccccc4)C(C)=C1C3(C)C)[C@]1(OC(C)=O)CO[C@@H]1C[C@@H]2O [paclitaxel],antitumor activity rating,[4],inactive
same,T/C,[4],71%
same,CR,[4],0/8
same,PR,[4],0/8
same,TFS,[5],0/6
same,antitumor activity rating,[5],inactive
same,T/C,[5],94%
same,CR,[5],0/6
bevacizumab: recombinant humanized monoclonal IgG1 anti-VEGF antibody; active ingredient in Avastin [reference compound],T/C,[6],37%
same,antitumor activity rating,[6],active
same,tumor free survivors (TFS),[6],0/6
same,CR,[6]; responders/animals,0/6
same,T/C,[7],51%
same,TFS,[7],0/4
same,antitumor activity rating,[7],inactive
same,CR,[7]; responders/animals,0/4
same,CRs,"[8]; 5 mg/kg QWx2, over the course of a 102-day study",no CRs
same,antitumor effect,"[8]; IMGN853 5 mg/kg QWx2, bevacizumab 5 mg/kg QWx2, alone or combined",prolonged growth control
same,antitumor activity rating,[4],highly active
same,T/C,[4],6%
same,CR,[4],0/8
same,PR,[4],0/8
same,T/C,[9],31%
same,TFS,[9],0/6
same,antitumor activity rating,[9],active
same,CR,[9]; responders/animals,0/6
same,TFS,[5],0/8
same,antitumor activity rating,[5],active
same,T/C,[5],22%
same,CR,[5],0/8
same,antitumor effect,[10],Split-dosing had no effect
same,"tumor microvessels, CD31 immunohistochemical staining",[11],decreased in size and showed loss of luminal integrity
same,T/C,[12]; [15],22%
same,TFS,[12]; [15],0/6
same,antitumor activity rating,[12]; [15],active
same,CR,[12]; [16],0/6
same,PR,[12]; [16],0/6
same,body weight loss,"[12]; bevacizumab 5 mg/kg monotherapy, Day 49 post-inoculation",9%
paclitaxel+carboplatin,T/C,[13],45%
same,TFS,[13],0/6
same,antitumor activity rating,[13],inactive
same,body weight loss (BWL) at nadir,[13],11.1%
same,CR,[13]; responders/animals,0/6
same,antitumor effect,[14]; QWx2: carboplatin 80 mg/kg i.p. with i.v. paclitaxel 10 mg/kg,efficacious
same,tolerability,[14]; QWx2: carboplatin 80 mg/kg i.p. with paclitaxel 10 mg/kg,well tolerated
same,complete regressions (CR),"[14]; QWx2: carboplatin 80 mg/kg i.p. with paclitaxel 10 mg/kg, n=7 mice/group",none
